Like-named read-outs stand apart in the source and are kept apart here.
Target: EGFR T790M/L858R Ba/F3 cell line (Homo sapiens, UniProt P00533, T790M/L858R, cells depend on it)
Assay: Ba/F3 cell proliferation model (MTS assay)
Assay type: cell-based, murine
Procedure: The EGFR mutant L858R, Del E746_A750, L858R/T790M, DeE746_A750/T790M, L858R/T790M/C797S and Del/T790M/C797S Ba/F3 cells were previously described (Zhou et al., Nature 462, (2009), 1070-1074). All cell lines were maintained in RPMI 1640 (Cellgro; Mediatech Inc., Herndon, Calif.) supplemented with 10% FBS 100 units/mL penicillin, 100 units/mL streptomycin, and 2 mM glutamine. L858R cells were maintained in ACL-4 media (Invitrogen, Carlsbad, Calif.) supplemented with 5% FBS, 100 units/mL penicillin, 100 units/mL streptomycin, and 2 mM glutamine. The EGFR I941R mutation was introduced via site directed mutagenesis using the Quick Change Site-Directed Mutagenesis kit (Stratagene; La Jolla, Calif.) according to the manufacturer's instructions. All constructs were confirmed by DNA sequencing. The constructs were shuttled into the retroviral vector JP1540 using the BD Creator™ System (BD Biosciences). Ba/F3 cells were infected with retrovirus and according to standard protocols, as described previously (Zhou 2009). Stable clones were obtained by selection in puromycin (2 μg/ml).
Growth and inhibition of growth was assessed by MTS assay and was performed according to previously established methods (Zhou 2009). The MTS assay is a colorimetric method for determining the number of viable cells that is based on the bioreduction of MTS by cells to a formazan product that is soluble in cell culture medium and can be detected spectrophotometrically. […] All experimental points were set up in six wells and all experiments were repeated at least three times. […] The curves were fitted using a non-linear regression model with a sigmoidal dose response.

[1] = absence of cetuximab, read-out: Ba/F3 cellular activity (EC50) T790M/L858R
[2] = read-out: Ba/F3 cellular activity (EC50) T790M/L858R + Cetuximab, presence of 1 μg/mL cetuximab

Sequence of EGFR T790M/L858R Ba/F3 cell line (P00533 whole entry T790M/L858R): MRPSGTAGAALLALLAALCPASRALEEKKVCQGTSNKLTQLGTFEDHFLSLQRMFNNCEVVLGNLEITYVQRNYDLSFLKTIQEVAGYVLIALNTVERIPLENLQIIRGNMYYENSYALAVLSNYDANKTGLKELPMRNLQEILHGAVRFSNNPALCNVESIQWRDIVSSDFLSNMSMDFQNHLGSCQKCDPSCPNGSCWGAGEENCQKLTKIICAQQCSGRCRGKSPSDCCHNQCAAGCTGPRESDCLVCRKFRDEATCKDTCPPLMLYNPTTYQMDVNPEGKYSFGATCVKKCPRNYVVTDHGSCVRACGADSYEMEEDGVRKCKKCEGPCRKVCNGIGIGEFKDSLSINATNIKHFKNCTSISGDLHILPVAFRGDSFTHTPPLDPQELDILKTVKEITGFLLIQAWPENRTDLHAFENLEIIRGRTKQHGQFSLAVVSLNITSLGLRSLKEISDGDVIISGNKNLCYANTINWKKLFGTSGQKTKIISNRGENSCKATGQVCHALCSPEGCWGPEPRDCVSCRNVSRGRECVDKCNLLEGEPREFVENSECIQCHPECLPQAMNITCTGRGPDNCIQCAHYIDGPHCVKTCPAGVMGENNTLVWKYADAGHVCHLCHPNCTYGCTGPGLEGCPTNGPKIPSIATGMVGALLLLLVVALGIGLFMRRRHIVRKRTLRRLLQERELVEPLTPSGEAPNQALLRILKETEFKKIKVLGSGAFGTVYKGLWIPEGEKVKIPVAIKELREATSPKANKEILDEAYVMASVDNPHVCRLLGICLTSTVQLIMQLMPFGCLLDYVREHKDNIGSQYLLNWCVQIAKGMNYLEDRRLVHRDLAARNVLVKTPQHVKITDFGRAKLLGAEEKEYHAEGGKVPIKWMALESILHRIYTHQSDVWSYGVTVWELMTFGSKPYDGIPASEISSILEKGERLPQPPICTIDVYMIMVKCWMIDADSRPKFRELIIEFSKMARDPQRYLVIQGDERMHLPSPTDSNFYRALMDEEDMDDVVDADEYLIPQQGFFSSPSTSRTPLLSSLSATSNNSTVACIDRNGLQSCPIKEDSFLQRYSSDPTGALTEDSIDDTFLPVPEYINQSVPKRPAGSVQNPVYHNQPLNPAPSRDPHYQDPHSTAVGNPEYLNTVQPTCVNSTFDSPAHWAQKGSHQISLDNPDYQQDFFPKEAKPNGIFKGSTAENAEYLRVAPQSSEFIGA

Row | EC50 [1] [nM] | EC50 [2] [nM] | SMILES
1 | ≥ 750 | 500 to 750 | C=CC(=O)Nc1ccc2c(c1)N(Cc1ccccc1)C(=O)c1cc(-c3ccc4[nH]ccc4c3)ccc1N2 [Compound I-1]
2 | < 250 | < 250 | O=C(CCl)Nc1ccc2c(c1)N(Cc1ccccc1)C(=O)c1cc(-c3ccc4[nH]ccc4c3)ccc1N2 [Compound I-2]
3 | ≥ 750 | ≥ 750 | C=CC(=O)Nc1ccc2c(c1)N(Cc1ccccc1)C(=O)c1cc(-c3ccc(N4CCNCC4)cc3)ccc1N2 [Compound I-3, N-(10-Benzyl-11-oxo-2-(4-(piperazin-1-yl)phenyl)-10,11-dihydro-5H-dibenzo[b,e][1,4]diazepin-8-yl)acrylamide]
4 | ≥ 750 | 250 to 500 | O=C1c2cc(Br)ccc2Nc2ccc(F)cc2N1Cc1ccccc1 [I-a, 10-Benzyl-2-bromo-8-fluoro-5,10-dihydro-11H-dibenzo[b,e][1,4]diazepin-11-one]

— US20200390783A1, “INHIBITORS OF EGFR AND METHODS OF USE THEREOF” (DANA-FARBER CANCER INSTITUTE, INC., priority 2018, published 2020)
